Reference: US20210196635A1, “DRUG-CONTAINING PARTICLE” (TOWA PHARMACEUTICAL CO., LTD., priority 2018, published 2021)

Assay: Average particle diameter (D50) of powder
Format: physicochemical
Conditions: powder as used for coating
From the text: The term “an average particle diameter” used herein refers to a particle diameter of 50% cumulative percentage (D50) on volume-based measurement of powder particle, which can be measured on the mass with a commercially available laser diffraction type particle size distribution measuring device and sonic wave vibration type sieving analyzer.

C[C@H]1COc2c(N3CCN(C)CC3)c(F)cc3c(=O)c(C(=O)O)cn1c23.C[C@H]1COc2c(N3CCN(C)CC3)c(F)cc3c(=O)c(C(=O)O)cn1c23.O [Compound A, levofloxacin 0.5 hydrate]
average particle diameter: 3.38 μm
